Measurements published in ChEMBL document CHEMBL5390287, “Discovery of a Tritiated Radioligand with High Affinity and Selectivity for the Histamine H3 Receptor” (ACS Med Chem Lett, 2023).
Activity calls are given as the source filed them. The rule behind the calls is not given here.

Legend:
[1] = biological target: T1, Histamine H3 receptor (Homo sapiens, UniProt Q9Y5N1); experiment: Displacement of UR-NR266 from NLuc-tagged human histamine H3 receptor expressed in HEK293T cells assessed as inhibition constant incubated for 5 mins followed by UR-NR266 addition by furimazine based NanoBRET competition binding assay; assay type: cell-based
[2] = biological target: Histamine H1 receptor (Homo sapiens, UniProt P35367); experiment: Displacement of [3H]mepyramine from SP-FLAG tagged human histamine H1 receptor expressed in HEK293T cells assessed as inhibition constant incubated for 60 min by scintillation counter analysis; assay type: cell-based
[3] = biological target: Histamine H2 receptor (Homo sapiens, UniProt P25021); experiment: Displacement of [3H]UR-KAT479 from SP-FLAG tagged human histamine H2 receptor expressed in HEK293T cells assessed as inhibition constant incubated for 60 min by scintillation counter analysis; assay type: cell-based
[4] = biological target: T1, Histamine H3 receptor; experiment: Displacement of [3H]UR-MN259 from SP-FLAG tagged human histamine H3 receptor expressed in HEK293T cells assessed as inhibition constant incubated for 60 min by scintillation counter analysis; assay type: cell-based
[5] = biological target: Histamine H4 receptor (Homo sapiens, UniProt Q9H3N8); experiment: Displacement of [3H]histamine from SP-FLAG tagged human histamine H4 receptor expressed in HEK293T cells assessed as inhibition constant incubated for 60 min by scintillation counter analysis; assay type: cell-based
[6] = organism: Homo sapiens; experiment: Selectivity ratio of Ki for human histamine H1 receptor to Ki for human histamine H3 receptor
[7] = organism: Homo sapiens; experiment: Selectivity ratio of Ki for human histamine H2 receptor to Ki for human histamine H3 receptor
[8] = organism: Homo sapiens; experiment: Selectivity ratio of Ki for human histamine H4 receptor to Ki for human histamine H3 receptor
[9] = biological target: T1, Histamine H3 receptor; experiment: Antagonist activity at human histamine H3 receptor in HEK293T cells expressing H3R-NlucC/NlucN-mGsi construct using furimazine as substrate assessed as displacement of histamine by MiniG recruitment assay; assay type: functional, cell-based; conditions: filed as antagonist
[10] = biological target: T1, Histamine H3 receptor; experiment: Binding affinity to SP-FLAG tagged human histamine H3 receptor expressed in HEK293T cells; assay type: cell-based; conditions: tested as the 3H-labelled form
[11] = biological target: T1, Histamine H3 receptor; experiment: Binding affinity to SP-FLAG tagged human histamine H3 receptor expressed in HEK293T cells assessed as association time constant incubated for 60 mins by scintillation counting analysis; assay type: cell-based; conditions: tested as the 3H-labelled form
[12] = biological target: T1, Histamine H3 receptor; experiment: Binding affinity to SP-FLAG tagged human histamine H3 receptor expressed in HEK293T cells assessed as dissociation rate constant incubated for 30 mins by scintillation counting analysis; assay type: cell-based; conditions: tested as the 3H-labelled form
[13] = biological target: T1, Histamine H3 receptor; experiment: Binding affinity to SP-FLAG tagged human histamine H3 receptor expressed in HEK293T cells assessed as dissociation time constant incubated for 30 mins by scintillation counting analysis; assay type: cell-based; conditions: tested as the 3H-labelled form
[14] = biological target: T1, Histamine H3 receptor; experiment: Binding affinity to SP-FLAG tagged human histamine H3 receptor expressed in HEK293T cells assessed as association rate constant incubated for 60 mins by scintillation counting analysis; assay type: cell-based; conditions: tested as the 3H-labelled form
[15] = biological target: T1, Histamine H3 receptor; experiment: Agonist activity at human histamine H3 receptor in HEK293T cells expressing H3R-NlucC/NlucN-mGsi construct using furimazine as substrate upto 10 uM by MiniG recruitment assay; assay type: functional, cell-based
[16] = biological target: T1, Histamine H3 receptor; experiment: Binding affinity to SP-FLAG tagged human histamine H3 receptor expressed in HEK293T cells assessed as maximum binding; assay type: cell-based; conditions: tested as the 3H-labelled form
[17] = biological target: T1, Histamine H3 receptor; experiment: Binding affinity to SP-FLAG tagged human histamine H3 receptor expressed in HEK293T cells using sodium containing Leibovitz's L-15 medium incubated for 60 min by scintillation counter analysis; assay type: cell-based
[18] = biological target: T1, Histamine H3 receptor; experiment: Binding affinity to SP-FLAG tagged human histamine H3 receptor expressed in HEK293T cells assessed as dissociation constant by incubated for 30 mins by scintillation counting analysis; assay type: cell-based
[19] = biological target: T1, Histamine H3 receptor; experiment: Binding affinity to SP-FLAG tagged human histamine H3 receptor expressed in HEK293T cells assessed as kinetic dissociation constant incubated for 30 mins by scintillation counting analysis; assay type: cell-based

T1 sequence (Q9Y5N1 whole entry): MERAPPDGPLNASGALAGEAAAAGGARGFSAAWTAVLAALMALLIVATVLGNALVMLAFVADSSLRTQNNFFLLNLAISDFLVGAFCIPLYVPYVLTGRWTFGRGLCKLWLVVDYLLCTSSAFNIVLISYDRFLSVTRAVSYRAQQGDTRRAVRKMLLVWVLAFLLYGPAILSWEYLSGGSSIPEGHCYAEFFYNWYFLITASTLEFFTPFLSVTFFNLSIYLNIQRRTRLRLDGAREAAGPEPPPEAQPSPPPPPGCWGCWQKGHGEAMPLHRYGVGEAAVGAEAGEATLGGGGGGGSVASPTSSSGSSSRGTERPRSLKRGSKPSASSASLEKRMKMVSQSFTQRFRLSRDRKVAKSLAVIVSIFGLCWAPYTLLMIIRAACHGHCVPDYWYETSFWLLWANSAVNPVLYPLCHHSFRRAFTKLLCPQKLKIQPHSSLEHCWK
Histamine H1 receptor, sequence (P35367 whole entry): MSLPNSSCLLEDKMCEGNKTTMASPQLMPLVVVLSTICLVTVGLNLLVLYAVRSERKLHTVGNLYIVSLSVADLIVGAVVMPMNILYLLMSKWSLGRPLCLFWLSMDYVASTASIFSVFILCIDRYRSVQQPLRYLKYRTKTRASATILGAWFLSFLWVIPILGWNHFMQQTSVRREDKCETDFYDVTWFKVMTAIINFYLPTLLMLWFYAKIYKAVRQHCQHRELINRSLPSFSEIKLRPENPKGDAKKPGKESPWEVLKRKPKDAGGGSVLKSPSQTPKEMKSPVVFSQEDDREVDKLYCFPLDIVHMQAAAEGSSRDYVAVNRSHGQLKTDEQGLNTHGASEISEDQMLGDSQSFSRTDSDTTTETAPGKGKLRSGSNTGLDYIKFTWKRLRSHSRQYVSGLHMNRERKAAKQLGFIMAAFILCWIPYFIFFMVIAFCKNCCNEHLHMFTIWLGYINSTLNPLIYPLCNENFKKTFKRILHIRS
Histamine H2 receptor, sequence (P25021 whole entry): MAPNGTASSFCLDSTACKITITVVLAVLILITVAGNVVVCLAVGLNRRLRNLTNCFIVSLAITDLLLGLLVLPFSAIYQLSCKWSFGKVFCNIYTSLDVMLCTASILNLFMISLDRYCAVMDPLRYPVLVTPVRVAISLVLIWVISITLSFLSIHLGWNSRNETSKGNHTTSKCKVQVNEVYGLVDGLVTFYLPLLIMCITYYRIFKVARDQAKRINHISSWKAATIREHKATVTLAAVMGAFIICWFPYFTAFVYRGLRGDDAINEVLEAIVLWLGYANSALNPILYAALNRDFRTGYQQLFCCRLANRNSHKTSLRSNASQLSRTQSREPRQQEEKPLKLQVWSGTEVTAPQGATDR

Ki [1] [nM]	Ki [2] [nM]	Ki [3] [nM]	Ki [4] [nM]	Ki [5] [nM]	Ratio Ki [6]	Ratio Ki [7]	Ratio Ki [8]	pKb [9]	Kobs [10] [min⁻¹]	TIME [11] [h]	K [12] [min⁻¹]	TIME [13] [h]	K [14] [M⁻¹ s⁻¹]	Activity [15]	Bmax (disintegrations/minute) [16]	Ki [17] [nM]	Kd [18] [nM]	Kd [19] [nM]	Kd [17] [nM]	Compound
0.275	> 100000	> 100000	0.282	> 100000	> 100	> 100	> 100	9.39	0.18	0.102	0.07	0.241	3.67e+06	inactive	1670	0.288	–	–	–	CCC(=O)NC1CCN(Cc2ccc(OCCCN3CCCCC3)cc2)CC1
–	–	–	5.75	–	–	–	–	–	–	–	–	–	–	–	–	28.2	–	–	–	N=C(N)SCCc1cnc[nH]1 [IMETIT]
–	–	–	–	–	–	–	–	–	–	–	–	–	–	–	–	–	0.562	0.324	0.513	[3H]C([3H])([3H])C([3H])([3H])C(=O)NC1CCN(Cc2ccc(OCCCN3CCCCC3)cc2)CC1
